Experimental data: US20120165319A1, “INHIBITORS OF INTERLEUKIN-1 BETA CONVERTING ENZYME” (VERTEX PHARMACEUTICALS INCORPORATED, priority 1995, published 2012)
Entries after “also recorded” stand apart in the source; their conditions may differ.

Experiments:
[1] = test system: IL-1β production, LPS-challenged mice; assay: In vivo acute assay for efficacy as anti-inflammatory agent: LPS-induced IL-1β production in mice; design: species or system mouse; details: for inhibition of IL-1β production after oral administration, dosed at time of LPS challenge: LPS-challenged mice, vehicles ethanol/PEG/water, β-cyclodextrin, labrosol/water or cremophor/water, result in words; for Inhibition (%) of IL-1β production in LPS-challenged mice: oral, dosed at time of LPS challenge
Outline: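 Serum IL-1β was measured by ELISA 7 h after an IP dose of 20 mg/kg LPS in CD1 mice, n=6 per group. Compounds in olive oil/DMSO/ethanol 90:5:5 were injected IP 1 h post-LPS (some analogs were dosed at challenge), and separate groups received 50 mg/kg by oral gavage.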

[2] = In vivo bioavailability determination (oral, rat); details: for blood levels of drug when dosed orally: oral 10-100 mg/kg; for blood levels of drug when dosed orally / drug availability when dosed orally: result in words; for Drug Availability / Cmax / drug availability when dosed orally: oral; for Cmax: aldehyde (drug) concentration
Method: In Vivo Bioavailability Determination
The drugs (10-100 mg/kg) were dosed orally to rats (10 mL/kg) in ethanol/PEG/water, β-cyclodextrin, labrosol/water or cremophor/water. Blood samples were drawn from the carotid artery at 0.25, 0.50, 1, 1.5, 2, 3, 4, 6, and 8 hours after dosing, centrifuged to plasma and stored at −70° C. until analysis. Aldehyde concentrations were determined using an enzymatic assay. Pharmacokinetic analysis of data was performed by non-linear regression using RStrip (MicroMath Software, UT).

[3] = test system: male DBA/1J mice, type II collagen-induced arthritis; assay: Type II collagen-induced arthritis; type: in vivo, mouse; details: oral gavage twice a day 10, 25 and 50 mg/kg (214e: 50 mg/kg once a day), Arthritis Severity Score, result in words
Method: Type II Collagen-Induced Arthritis
Type II collagen-induced arthritis was established in male DBA/1J mice at described Wooley and Geiger (Wooley, P. H., Methods in Enzymology, 162, pp. 361-373 (1988) and Geiger, T., Clinical and Experimental Rheumatology, 11, pp. 515-522 (1993)). Chick sternum Type II collagen ([…] in 10 mM acetic acid) was emulsified with an equal volume of Freund's complete adjuvant (FCA) by repeated passages (400) between two 10 ml glass syringes with a gauge 16 double-hub needle. Mice were immunized by intradermal injection (50 μl; […], CII per mouse) of collagen emulsion 21 days later at the contra-lateral side of the tail base. Drugs were administered twice a day (10, 25 and 50 mg/kg) by oral gavage approximately 7 h apart. Vehicles used included ethanol/PEG/water, β-cyclodextrin, labrosol/water or cremophor/water. Drug treatments were initiated within 2 h of the CII booster immunization. Inflammation was scored on a 1 to 4 scale of increasing severity on the two front paws and the scores are added to give the final score.

U937 cells = assay: Fas-induced apoptosis in U937 cells; details: Homo sapiens, U-937, read-out: Inhibition of apoptosis
Method: Fas-Induced Apoptosis in U937 cells. Compounds were evaluated for their ability to block anti-Fas-induced apopotosis. […] We used this cell line for apoptosis studies. U937 cells were seeded in culture at 1×10^5 cells/ml and grown to ˜5×10^6 cells/ml. For apoptosis experiments, 2×10^6 cells were plated in 24-well tissue culture plates in 1 ml RPMI-1640-10% FBS and stimulated with 100 ng/ml anti-Fas antigen antibody (Medical and Biological Laboratories, Ltd.). After a 24 hr incubation at 37° C., the percentage of apoptotic cells was determined by FACS analysis using ApoTag reagents.

ICE = biological target: T1, ICE (Homo sapiens, UniProt P29466); assay: Enzyme assay with fluorescent substrate (Acetyl-Tyr-Val-Ala-Asp-AMC); Ki and second order rate constants kinact; type: biochemical
T1 sequence (P29466 120-297 limits assumed): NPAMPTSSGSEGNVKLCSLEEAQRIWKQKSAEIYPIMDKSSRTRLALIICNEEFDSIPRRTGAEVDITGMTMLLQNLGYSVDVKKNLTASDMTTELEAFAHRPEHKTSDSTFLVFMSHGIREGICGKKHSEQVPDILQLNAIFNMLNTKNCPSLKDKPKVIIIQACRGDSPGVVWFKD
T1 sequence (P29466 317-404 limits assumed): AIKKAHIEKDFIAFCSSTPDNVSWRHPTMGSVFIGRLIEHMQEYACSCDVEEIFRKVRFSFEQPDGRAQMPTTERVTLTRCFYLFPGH
Method: 2. Enzyme Assay with Fluorescent Substrate
This assay is run essentially according to Thornberry et al. (Nature 356: 768-774 (1992)), using substrate 17 referenced in that article. The substrate is: Acetyl-Tyr-Val-Ala-Asp-amino-4-methylcoumarin (AMC). The following components are mixed:
The assay is run in a 96 well microtiter plate. Buffer and ICE are added to the wells. The components are left to incubate at 37° C. for 15 minutes in a temperature-controlled wellplate. After the 15 minute incubation, the reaction is started by adding substrate directly to the wells and the reaction is monitored @37° C. for 30 minutes by following the release of the AMC fluorophore using an excitation wavelength for 380 nm and an emission wavelength of 460 nm. A linear fit of the data for each well is performed and a rate is determined in fluorescence units per second.
For determination of enzyme inhibition constants (Ki) or the mode of inhibition (competitive, uncompetitive or noncompetitive), the rate data determined in the enzyme assays at varying inhibitor concentrations are computer-fit to standard enzyme kinetic equations (see I. H. Segel, Enzyme Kinetics, Wiley-Interscience, 1975).
The determination of second order rate constants for irreversible inhibitors was performed by fitting the fluorescence vs time data to the progress equations of Morrison. Morrison, J. F., Mol. Cell. Biophys., 2, pp. 347-368 (1985). Thornberry et al. have published a description of these methods for measurement of rate constants of irreversible inhibitors of ICE. Thornberry, N. A., et al. Biochemistry, 33, pp. 3923-3940 (1994). For compounds where no prior complex formation can be observed kinetically, the second order rate constants (kinact) are derived directly from the slope of the linear plots of kobs vs. [I]. For compounds where prior complex formation to the enzyme can be detected, the hyperbolic plots of kobs vs. [I] are fit to the equation for saturation kinetics to first generate Ki and k′. The second order rate constant kinact is then given by k′/Ki.
(§1) The selectivity of a panel of reversible inhibitors for ICE homologs is depicted in Table 1. ICE enzyme assays were performed according to Wilson et al (supra 1994) using a YVAD-AMC substrate (Thornberry et al, supra 1992). Assay of TX activity was performed using the ICE substrate under identical conditions to ICE. Assay of CPP32 was performed using a DEVD-AMC substrate (Nicholson et al., supra 1995). In general, there is low selectivity between ICE and TX for a wide range of scaffolds. None of the synthetic ICE compounds tested are effective inhibitors of CPP32.
(§2) Second-order rate constants for inactivation of ICE and ICE homologs with selected irreversible inhibitors are presented below (Table 2). The irreversible compounds studied are broad spectrum inhibitors of ICE and its homologs. Some selectivity, however, is observed with the irreversible compounds comparing inhibition of ICE and CPP32.

TX = biological target: T2, TX (Homo sapiens, UniProt P49662); assay: Inhibition of ICE homologs: TX; type: biochemical; details: second-order rate constant for inactivation, irreversible inhibitors (Table 2)
T2 construct: made in house; host or cells: Spodoptera frugiperda (Sf9) insect cells, recombinant baculovirus (pVL1393/TX)
T2 sequence (P49662 81-270 limits assumed): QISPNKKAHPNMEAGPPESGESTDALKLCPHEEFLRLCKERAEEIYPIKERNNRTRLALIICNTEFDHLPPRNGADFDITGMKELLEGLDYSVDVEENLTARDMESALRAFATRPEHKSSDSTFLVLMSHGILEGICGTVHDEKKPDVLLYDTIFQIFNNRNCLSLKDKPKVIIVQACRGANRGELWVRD
T2 sequence (P49662 290-377 limits assumed): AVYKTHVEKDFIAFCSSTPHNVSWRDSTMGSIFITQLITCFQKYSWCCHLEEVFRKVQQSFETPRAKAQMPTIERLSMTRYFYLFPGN
From the text: Expression of TX in insect cells using a baculovirus expression system. We have subcloned Tx cDNA (Faucheu et al., supra 1995) into a modified pVL1393 transfer vector, co-transfected the resultant plasmid (pVL1393/TX) into insect cells with viral DNA and identified the recombinant baculovirus. After the generation of high titer recombinant virus stock, the medium was examined for TX activity using the visible ICE assay. […] ICE was used as a standard in the assay.
as §1, §2

[4] = test system: IL-1β levels in the peritoneal fluid, carrageenan-challenged mice; assay: Mouse carrageenan peritoneal inflammation; type: in vivo; details: for Inhibition (%) of IL-1β production in carrageenan-challenged mice: oral
Method: Mouse Carrageenan Peritoneal Inflammation
Inflammation was induced in mice with an intraperitoneal (IP) injection of 10 mg carrageenan in 0.5 ml of saline (Griswold et al., Inflammation, 13, pp. 727-739 (1989)). Drugs are administered by oral gavage in ethanol/PEG/water, β-cyclodextrin, labrosol/water or cremophor/water vehicle. The mice are sacrificed at 4 hours post carrageenan administration, then injected IP with 2 ml of saline containing 5 U/ml heparin. After gentle massage of the peritoneum, a small incision is made, the contents collected and volume recorded. Samples are kept on ice until centrifuged (130×g, 8 mins at 4° C.) to remove cellular material, and the resultant supernatant stored at −20° C. IL-1β levels in the peritoneal fluid are determined by ELISA.

Structure (SMILES) | inhibition of IL-1β production after oral administration, dosed at time of LPS challenge [1] | Inhibition (%) of IL-1β production in LPS-challenged mice ([1]; 10 mg/kg dose) | Inhibition (%) of IL-1β production in LPS-challenged mice ([1]; 25 mg/kg dose) | Inhibition (%) of IL-1β production in LPS-challenged mice ([1]; 50 mg/kg dose) | blood levels of drug when dosed orally [2] | drug availability when dosed orally [2] | inhibition of inflammation / progression of type II collagen-induced arthritis [3] | Drug Availability ([2]; dose 25 mg/kg) | Cmax ([2]; dose 25 mg/kg) | Inhibition (%) of IL-1β production in carrageenan-challenged mice ([4]; dose 1 mg/kg) | Inhibition (%) of IL-1β production in carrageenan-challenged mice ([4]; dose 10 mg/kg) | Inhibition (%) of IL-1β production in carrageenan-challenged mice ([4]; dose 25 mg/kg) | Inhibition (%) of IL-1β production in carrageenan-challenged mice ([4]; dose 50 mg/kg) | Inhibition (%) of IL-1β production in carrageenan-challenged mice ([4]; dose 100 mg/kg) | further results
O=C(CN1C(=O)[C@@H](NC(=O)c2nccc3ccccc23)CN(C(=O)CO)c2ccccc21)N[C@H]1CC(=O)OC1OCc1ccccc1 (mixture of isomers) [Compound 696a, (3S)-2-Oxo-3-(isoquinolin-1-oyl)amino-5-hydroxyacetyl-N-[(2RS,3S)-benzyloxy-5-oxo-tetrahydrofuran-3-yl]-2,3,4,5-tetrahydro-1H-1,5-benzodiazepine-1-acetamide] | inhibit IL-1β production | 0% | 45% | 52% | significant blood levels of drug | good drug availability | inhibit inflammation; also recorded: blocks the progression |  |  |  |  |  |  |  | Drug Availability ([2]; dose 50 mg/kg): 10%; Cmax ([2]; dose 50 mg/kg): 1200 ng/mL
O=C(O)C[C@H](NC(=O)CN1C(=O)[C@@H](NC(=O)CCc2ccccc2)CN(C(=O)CCc2ccccc2)c2ccccc21)C(=O)COC(=O)c1c(Cl)cccc1Cl [Compound 108a, 2,6-Dichlorobenzoic acid 4-carboxy-2-oxo-3(S)-{2-[2-oxo-5-(3-phenylpropionyl)-3(S)-(3-phenylpropionylamino)-2,3,4,5-tetrahydrobenzo[b][1,4]diazepin-1-yl]acetylamino}butyl ester] |  |  |  |  |  |  |  |  |  |  |  |  |  |  | inhibition at 20 µM (U937 cells): > 75%; Fluorescent Assay kinact (ICE; Table 6): 1 × 10^5 m^−1 s^−1; kinact (ICE) (ICE; second-order rate constant for inactivation, irreversible inhibitors (Table 2)): 100,000 M^−1 s^−1; kinact (TX) (TX): 25,000 M^−1 s^−1
O=C1C[C@H](NC(=O)[C@@H]2CCCN3C(=O)CC[C@H](NC(=O)c4nccc5ccccc45)C(=O)N23)[C@H](OC2CCCC2)O1 [Compound 412d, [1S,9S(2R,3S)]N-(2-Cyclopentoxy-5-oxotetrahydrofuran-3-yl)-6,10-dioxo-9-(isoquinolin-1-oylamino)-1,2,3,4,7,8,9,10-octahydro-6-H-pyridazino[1,2-a][1,2]diazepine-1-carboxamide] | inhibit IL-1β production |  |  |  | significant blood levels of drug | good drug availability | inhibit inflammation; also recorded: blocks the progression | 35% | 2600 ng/mL | 0% | 32% | 31% | 36% | 53% | 
CCO[C@@H]1OC(=O)C[C@@H]1NC(=O)[C@@H]1CCCN2C(=O)CC[C@H](NC(=O)c3nccc4ccccc34)C(=O)N12 [Compound 412f, [1S,9S(2R,3S)]N-(2-Ethoxy-5-oxotetrahydrofuran-3-yl)-6,10-dioxo-9-(isoquinolin-1-oylamino)-1,2,3,4,7,8,9,10-octahydro-6-H-pyridazino[1,2-a][1,2]diazepine-1-carboxamide] | inhibit IL-1β production | 17% | 25% | 32% | significant blood levels of drug | good drug availability | inhibit inflammation; also recorded: blocks the progression | 32% | 2400 ng/mL | 30% | 54% | 49% | 73% | 75% | inhibition of IL-1β production in carrageenan-challenged mice ([4]; oral administration, 214e at 50 mg/kg, result in words): inhibits IL-1β production
